pEC50: −log10 of the molar value. Several values for one entry are separate records, joined by “and”; a condition that tells them apart may be missing. Identical values can stand only once. Like-named read-outs stand apart in the source and are kept apart here.

These results are taken from PMC10350920, “Development of a 2,4-Diaminothiazole Series for the Treatment of Human African Trypanosomiasis Highlights the Importance of Static–Cidal Screening of Analogues” (Journal of Medicinal Chemistry, 2023).

Data set [1] deals with BSF T. b. brucei “single marker” S427. As to the kind of experiment: Drug sensitivity assay with bloodstream-form T. brucei. To be noted: for pEC50: mean values, number of replicates in parentheses. It counts as cell-based. The procedure:
Drug sensitivity assays with BSF T. b. brucei “single marker” S427 and human MRC-5 fibroblasts were conducted as previously described.[43]

Data set [2] is described as follows: Mouse liver microsomal intrinsic clearance. Format: in vitro ADME. Summed up: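 Compound (0.5 μM) incubated with liver microsomes (0.5 mg/mL, 50 mM potassium phosphate pH 7.4) and excess NADPH; samples quenched at 0–30 min and analysed by UPLC–MS/MS. Rate constant from exponential decay of compound/internal standard ratio; CLint scaled with 52.5 mg protein/g liver.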

The nature of data set [3]: Pharmacokinetics in NMRI mice. It counts as in vivo, female NMRI mice.
Experimental: To determine compound exposure, compounds were dosed by gavage (16, 38) at 10 mg kg^–1 free base (16, 38), dose volume; and 5 mL kg^–1 (16, 38), dose vehicle (10% DMSO/40% PEG400/50% Milli-Q) to female NMRI mice, n = 3/dose level (16), or Sprague Dawley rats (38). Blood samples were taken from each mouse/rat at 5, 15, and 30 min, 1, 2, 4, 6, and 8 h postdose and mixed with two volumes of distilled water. After suitable sample preparation, the concentration of the test compound in blood was determined by UPLC–MS/MS using a Quattro Premier XE (Waters, USA). Pharmacokinetic parameters were derived from the mean blood concentration–time curve using PKsolutions software v 2.0 (Summit Research Services, USA).
A short description of data set [4]: Equilibrium dialysis, free fraction in brain. It counts as in vitro ADME, mouse. The procedure:
In brief, a 96-well equilibrium dialysis apparatus was used to determine the free fraction in plasma and the brain (HT Dialysis LLC, Gales Ferry, CT). Isotonic buffer was prepared using 8.69 g of Na2HPO4, 1.9 g of KH2PO4, and 4.11 g of NaCl dissolved in 1 L of Milli-Q water, and the pH was adjusted to 7.4. Artificial CSF was prepared using 3.652 g of NaCl, 93.2 mg of KCl, 119.96 mg of MgCl2, 92.61 mg of CaCl2, and 268 mg of Na2HPO4 heptahydrate dissolved in 0.5 L of water, and the pH was adjusted to 7.4. Membranes [12–14 (plasma) or 6–9 (brain) kDA cutoff] were conditioned in deionized water for 60 min, followed by conditioning in 80:20 deionized water/ethanol for 20 min, and then rinsed in isotonic buffer (plasma) or […] (brain) before use. Female CD1 mouse plasma was defrosted and centrifuged for 10 min at 3000 rpm (Allegra X12-R, Beckman Coulter, USA). The control mouse brain was homogenized in two volumes of artificial CSF in a Covaris S2 acoustic homogenizer. […] All samples were analyzed by means of UPLC/MS/MS on a Quattro Premier XE or Micro TQs mass spectrometer (Waters Corporation, USA). The unbound fraction was determined as the ratio of the peak area in the buffer to that in the matrix.
For orientation: In equilibrium dialysis free small molecules cross a membrane that holds back macromolecules.

In the next data set the test system is BSF trypanosomes. Nature of the data set: Static–cidal assay. Format: cell-based, T. brucei. To be noted: lower concentrations cytostatic. The source says: To complement our established T. brucei cell-based screen, in the course of these studies, we developed an assay that allows discrimination of compounds that are cytostatic from those that are cytocidal.[15] In this assay, static and cidal compounds are categorized by analysis of growth curves, with cidal compounds causing a decrease in parasite numbers. Commonly, phenotypic screens with T. brucei are end-point assays with live-cell indicators used as the final readout. In our […] assay, bloodstream trypanosomes are grown in the presence of test compounds for 3 days with a starting cell density well below the assay limit of detection, thus making it impossible to distinguish cidal from static compounds. To assess if compounds within this diaminothiazole series kill trypanosomes or merely stop parasite growth, we profiled a panel of compounds in our static–cidal assay. […] Similarly in rats, the concentration would be below the level for cidal activity.
An assay to assess initial indications of the cidal nature of the compound series was conducted as previously reported.[15] […] After 4 h, the time = 0 plate was read using a PerkinElmer Victor 3 plate reader (excitation 528 nm; emission 590 nm). […]

The mark [5] stands for this setting: 100 mg kg^–1 IP, assuming linearity of exposure.

As usually defined, the pEC50 is the EC50 on a negative log10 scale, so that one unit is a factor of ten. One may read the Tmax as the time at which the peak concentration occurs. Consider “(4-Amino-2-(cyclohexylamino)thiazol-5-yl)(2,6-difluorophenyl)methanone [Compound 16]”, for which the negative-log EC50 (pEC50) in data set [1] is 6.96. Besides, the “CLint (mouse)” value in data set [2] worked out at 15 mL·min/g. In addition, in data set [3] (NMRI mice, IP, 10 mg kg^–1), the AUC is 66,000 ng mL h^–1 and the Tmax was 15 min. Also, in data set [3] (NMRI mice, PO, 10 mg kg^–1), the AUC came to 5700 ng mL h^–1, the Cmax is 33 ng mL^–1 and the Tmax was determined as 30 min. The “brain free fraction (Fu, fraction unbound)” value in data set [4] (brain) is 0.0063. For the same compound, the “concentration that is cidal (reduction in parasite number)” value in the data set on BSF trypanosomes is “above 5.6 μM”.

The term EC90 denotes the point of the concentration-response curve where the effect stands at 90%. In general, fraction unbound refers to the share of the substance not bound to proteins or other matrix. For `CC(C)(O)CC(=O)c1sc(Nc2ccc(F)c(F)c2)nc1N` [Compound 38, 1-(4-Amino-2-((3,4-difluorophenyl)amino)thiazol-5-yl)-3-hydroxy-3-methylbutan-1-one], the EC90 in data set [1] (Trypanosoma brucei, T. brucei) was 0.131 µg/mL and 400 nM. Also, the pEC50 in data set [1] (Trypanosoma brucei) is 6.74. Further, in data set [2], the “CLint (mouse)” value came to 2.2 mL·min/g. Also, in data set [3] (setting [5]), the “free Cmax in blood, extrapolated” value is 16 µM and the “free Cmax, extrapolated” value is listed as 5200 ng mL^–1. Besides, the “Cmax (total blood)” value in data set [3] (NMRI mice, IP, 50 mg kg^–1) was 18,000 ng mL^–1. For the same compound, in data set [3] (female, NMRI, mouse, whole blood, mice, IP, 50 mg kg^–1, read-out: total blood Cmax), the Cmax was found to be 55 µM. Besides, the AUC in data set [3] (female, mouse, whole blood, NMRI mice, IP, 50 mg kg^–1, read-out: AUC (converted)) was 31.7 µg·h/mL. In data set [3] (female, mouse, whole blood, NMRI mice, IP, 50 mg kg^–1, read-out: Tmax), the Tmax stood at 30 min. For the same compound, the “free Cmax in the brain, extrapolated” value in data set [3] (mice, 100 mg kg^–1 IP) is 4.6 µM. Moreover, the unbound share (fraction unbound) at 5 h, 10 μg mL^–1 in data set [4] (mouse, brain homogenate, pH 7.4, read-out: brain free fraction (Fu, fraction unbound)) stood at 0.0313. In addition, the “concentration that is cidal (reduction in parasite number)” value in the data set on BSF trypanosomes came to 50 µM.
